In article PMC8945721, “Sulphoraphane Affinity-Based Chromatography for the Purification of Myrosinase from Lepidium sativum Seeds” (Biomolecules, 2022):

Test system: T1, myrosinase from Lepidium sativum seeds
T1 construct: gene beta-thioglucoside glucohydrolase
Test: glucose release, glucose oxidase-peroxidase coupled assay, Michaelis-Menten fit
Format: biochemical
Conditions: pH 6.0, 37 °C, 100 μM L-ascorbic acid; read-out: KM (×10^-3 mol/L)
Source text: glucose release, glucose oxidase-peroxidase coupled assay, Michaelis-Menten fit on myrosinase from Lepidium sativum seeds

Km [µM]	SMILES
632 ± 235	O=S(=O)(O)O/N=C(/Cc1ccc(O)cc1)S[C@@H]1O[C@H](CO)[C@@H](O)[C@H](O)[C@H]1O [Sinalbin]
1130 ± 256	C[S+]([O-])CCCC/C(=N/OS(=O)(=O)O)S[C@@H]1O[C@H](CO)[C@@H](O)[C@H](O)[C@H]1O (stereo partly drawn) [Glucoraphanin]
574 ± 237	C=CC/C(=N/OS(=O)(=O)O)S[C@@H]1O[C@H](CO)[C@@H](O)[C@H](O)[C@H]1O [Sinigrin]
